{
  "source": "patent US11077316B2",
  "about": "“Insertion devices and systems for production of emitted light internal to a medium and methods for their use” (Immunolight, LLC, priority 2016, dated 2021)",
  "origin": "cited, not measured here",
  "key": {"[1]": {"details": "orange juice, high UV exposure of 100 mJ/cm^2"}, "[2]": {"tested_on": "Venezuelan equine encephalitis virus (VEEV)", "details": "INA exposed to full light conditions"}, "[3]": {"tested_on": "Zaire Ebola virus (ZEBOV)", "details": "UV light 310 to 360 nm, ex situ in extracted blood"}, "Acinetobacter baumannii": {"tested_on": "Acinetobacter baumannii", "details": "released nitric oxide, light 100 milliWatts per square centimeter"}},
  "note": "Like-named read-outs stand apart in the source and are kept apart here.",
  "data": [
    {"compound": "O=C1O[C@H]([C@@H](O)CO)C(O)=C1O", "note": "[Vitamin C]", "values": [
      {"measurement": "degradation of Vitamin C", "setting": "[1]", "value": 17, "unit": "%"}
    ]},
    {"compound": "[N-]=[N+]=Nc1cccc2c(I)cccc12", "note": "[INA, 1,5-iodonaphthyl-azide]", "values": [
      {"measurement": "inactivation of virulent strain of VEEV", "setting": "[2]", "value": "efficiently inactivate"},
      {"measurement": "infectivity of ZEBOV after INA treatment", "setting": "[3]", "value": "completely noninfectious"}
    ]},
    {"compound": "Oc1cccc(-c2c3nc(c(-c4cccc(O)c4)c4ccc([nH]4)c(-c4cccc(O)c4)c4nc(c(-c5cccc(O)c5)c5ccc2[nH]5)CC4)C=C3)c1", "note": "[Foscan, Tetra (m-hydroxyphenyl) chlorin]", "values": [
      {"measurement": "duration of skin photosensitivity", "setting": "clinical", "value": "approximately 2 weeks"}
    ]},
    {"compound": "[Mn(PaPy3)(NO)](ClO4)", "values": [
      {"measurement": "clearing of bacteria from treated areas of plates", "setting": "Acinetobacter baumannii", "value": "effectively cleared the bacteria"}
    ]},
    {"compound": "CC(=O)[O-].CC(=O)[O-].CCc1c(CC)c2cc3nc(cnc4cc(OCCOCCOCCOC)c(OCCOCCOCCOC)cc4ncc4nc(cc1[n-]2)C(CCCO)=C4C)C(C)=C3CCCO.O.[Lu+3]", "note": "[Motexafin lutetium]", "values": [
      {"measurement": "duration of skin photosensitivity", "setting": "in vivo", "value": "24 to 48", "unit": "h"}
    ]}
  ]
}
